# Source: US12402628B2, “Compositions, kits, methods and uses for cleaning, disinfecting, sterilizing and/or treating” (Collidion, Inc., priority 2018, dated 2025)
# Several values for one entry are separate records, joined by “and”; a condition that tells them apart may be missing. Equal entries are not always repeated.
# System: Staphylococcus epidermidis (ATCC 12228)
# Assay: Bacterial viability assay with Bovine Serum, HOCl and salt controls (Table 30)
# Type: cell-based
# Conditions: 200 ppm Hypochlorous acid, 5 minutes
# Description: Stock cultures of pathogenic bacteria Staphylococcus epidermidis (ATCC 12228) were prepared as described in Example 3. The final numeration count uses aliquot volume, count obtained on TSA plate and the total original volume of culture. The remaining amount in the tube was used to inoculate actual test samples. Samples from each composition tested were set up with Bovine Serum as follows: 1) Assays with serum contained 100 μL of pathogenic bacteria suspension, 500 μL of Bovine Serum and 9400 μL of one of the composition formulations shown in Table 29; 2) HOCl control assays contained 100 μL of pathogen bacteria suspension, 500 μL of Bovine Serum and 9400 μL of 350 ppm, 200 ppm, 100 ppm or 50 ppm Hypochlorous acid; 3) Salt control assays contained 100 μL of pathogen bacteria suspension, 500 μL of Bovine Serum and 9400 μL of 140 ppm, 80 ppm, 40 ppm or 20 ppm each of Copper (II) chloride, Iron (II) chloride and zinc chloride or each of Copper (II) chloride, Iron (III) chloride and zinc chloride; and 4) Negative control assays contained 100 μL of pathogen bacteria suspension, 500 μL of Bovine Serum and 9400 μL of sterile water. Samples were exposed for five (5) minutes at which point a neutralizing agent was used to inhibit the activity of the microbial agent being tested. […] The presence of viable bacteria was then measured by counting the number of colonies observed on the agar medium.
substance,measurement,value
Hypochlorous acid [HOCl Control],"Log Growth Reduction, HOCl Control",3.03 log and 3.00 log
